What all share (format): biochemical, Microbacterium sp. 3H14
Test [1] deals with MPOx.
Test [2] has as its system MPOx. This is another data set of the same source.
Test [3] has as its system MPOx. This is another data set of the same source.

Molecules are shown by their SMILES. Like-named read-outs stand apart in the source and are kept apart here.

With `O=C(CCc1ccc(O)c(O)c1)c1c(O)cc(O)c([C@@H]2O[C@H](CO)[C@@H](O)[C@H](O)[C@H]2O)c1O` [Aspalathin], the Ki (in general, the dissociation constant of the complex between target and ligand, obtained from inhibition or displacement) on MPOx [1] is 300 ± 50 µM. In addition, the Km (as a rule, the concentration of substrate that gives half-maximal velocity) with MPOx [2] stood at 85 ± 14 µM.
`OC[C@H]1OC(O)[C@H](O)[C@@H](O)[C@@H]1O` (stereo partly drawn) [D-glucose]: the Km in the test with MPOx [3] came out at 660 ± 30 µM.
The same measure, in the same setting: with `OC1OC[C@@H](O)[C@H](O)[C@H]1O` (stereo partly drawn) [D-xylose] the figure was 19000 ± 1000 µM.
`O=C(CCc1ccc(O)cc1)c1c(O)cc(O)cc1O[C@@H]1O[C@H](CO)[C@@H](O)[C@H](O)[C@H]1O` [Phlorizin] gave a Ki at MPOx [1] of 480 ± 50 µM. In addition, in the test with MPOx [2], the Km amounted to 57 ± 6 µM.

The record behind these values is article PMC11673046, “Characterization of a Pyranose Oxidase/C-Glycoside Oxidase from Microbacterium sp. 3H14, Belonging to the Unexplored Clade II of Actinobacterial POx/CGOx” (Biomolecules, 2024).
